{"source": "patent US9701987B2", "about": "“Fermentation process for the production and control of pyruvate-derived products” (priority 2014, dated 2017)", "key": {"[1]": {"system": "Clostridium autoethanogenum", "source_text": "A fermentation was started using the general fermentation process with gas and agitation were increased to minimize acetate and maximize ethanol production. Dilution rate and bacterial dilution rate were adjusted by day 4.0 to 2.0 day-^1 and 1.2 day-1, respectively. These values were maintained for the remainder of the fermentation.\nOn day 14.1 the concentration of B1 in media was decreased to reduce the specific B1 feed rate with all other operational parameters being kept constant.\nIt has been reported in the art that the limiting concentration of B1 for growth and acetate production is 6.5 μg/g cell produced."}, "[2]": {"conditions": "reported in the art; cited from earlier work"}, "[3]": {"system": "Clostridium autoethanogenum", "assay": "Example 1: fermentation with vitamin B5 concentration increased during the run, effect on 2,3-BDO production", "assay_type": "cell-based", "protocol": "This experiment was carried out according to the general fermentation process described above. […] Dilution rate and bacterial dilution rate were adjusted so that by day 5.0 these were 1.8 day^−1 and 0.85 day^−1, respectively.\nOn day 8.1 the concentration of vitamin B5 in media was increased 10 fold with all other operational parameters remaining the same. During this time the biomass production rate dropped slightly so accordingly the vitamin B5 feed rate was increased just over tenfold to 2180 μg/g-cell produced. Following the increase in the vitamin B5 concentration, the specific 2,3-BDO production rate and concentration increased with other parameters remaining stable.\nThis is a surprising result as it is only the specific 2,3-BDO production rate and the concentration of 2,3-BDO that increases while the production rate of other metabolites, e.g. ethanol and biomass remains the same."}, "[4]": {"system": "Clostridium autoethanogenum", "assay": "Example 3: fermentation with excess vitamin B5 from the start, effect on 2,3-BDO production", "assay_type": "cell-based", "protocol": "The example above can be compared to results when excess B5 vitamin is present in the fermentation media throughout the fermentation. […] In this case the 2,3-BDO concentration reached 9 g/L with an ethanol:2,3-BDO ratio of 2:1 (FIG. 2), and a CO uptake of 9.4 mol/L/day (FIG. 3). The feed rate of B5 vitamin throughout the fermentation was >2000 μg/g-cell produced. During day 6.0 to 7.0 as the biomass and 2,3-BDO production flattened out the feed rate of B5 vitamin was 2011 μg/g-cell produced. The specific 2,3-BDO production rate was 1.2 g/day per g-biomass, the specific ethanol production rate was 2.4 g/day per g-biomass."}, "Clostridium ljungdahlii": {"system": "Clostridium ljungdahlii", "conditions": "WO 2002/08438; cited from earlier work"}, "[5]": {"system": "Clostridium autoethanogenum", "assay": "Example 5: fermentation with vitamin B7 concentration increased then reduced, effect on 2,3-BDO production", "assay_type": "cell-based", "protocol": "In this example the impact of B7 on the production of 2,3-BDO was tested using a fermentation grown according to the general fermentation process. […] Dilution rate and bacterial dilution rate were adjusted so that by day 8.0 these were 1.8 day^−1 and 0.75 day^−1 respectively. […] The results achieved at that time are summarised below;\nOn day 8.69 the concentration of B7 in media was increased 10 fold with all other operational parameters being kept constant. During this time the biomass production rate remained stable so the B7 feed rate was increased over tenfold to 980 μg/g cell produced. Following the increase in the B7 feed the specific 2,3-BDO production rate and the concentration of 2,3-BDO increased. The data obtained from days 13-14 are summarised below;\nAs the 2,3-BDO concentration was reaching a peak (day 14.04) the B7 in the media was reduced 10 fold such that the specific B7 feed rate was reduced back to 90 μg/g cell produced.\nThis is a surprising result as it is the specific 2,3-BDO production rate and the concentration of 2,3-BDO that increases rather than any other metabolite and or biomass."}, "[6]": {"conditions": "vitamin B1 feed rate 303 μg/g cell produced, day 10.0-14.0"}, "[7]": {"conditions": "vitamin B1 feed rate decreased to 61 μg/g cell produced"}, "[8]": {"conditions": "vitamin B5 feed rate 198 μg/g-cell produced, day 6.0-8.0"}, "[9]": {"conditions": "vitamin B5 feed rate 2180 μg/g cell produced"}, "[10]": {"conditions": "B5 vitamin feed rate 2011 μg/g-cell produced, day 6.0 to 7.0"}, "[11]": {"conditions": "B5 vitamin feed rate >2000 μg/g-cell produced throughout the fermentation"}, "[12]": {"conditions": "vitamin B7 feed rate 90 μg/g cell produced, before increase"}, "[13]": {"conditions": "vitamin B7 feed rate 980 μg/g cell produced, days 13-14"}, "[14]": {"conditions": "vitamin B7 reduced back to 90 μg/g cell produced (after day 14.04)"}}, "note": "Like-named read-outs stand apart in the source and are kept apart here."}
{"smiles": "Cc1ncc(C[n+]2csc(CCO)c2C)c(N)n1.Cl.[Cl-]", "note": "[vitamin B1, Thiamine hydrocloride]", "values": [{"measurement": "effect of decreasing the B1 concentration on ethanol production", "setting": "[1]; B1 feed rate 303 to 61 μg/g cell produced, CO uptake constant", "result": "unaffected"}, {"measurement": "2,3-BDO concentration", "setting": "[1]; [6]", "result": 3.4, "unit": "g/L"}, {"measurement": "Biomass", "setting": "[1]; [6]", "result": 5.79, "unit": "g/L"}, {"measurement": "CO uptake", "setting": "[1]; [6]", "result": 8.0, "unit": "mol/L/day"}, {"measurement": "Ethanol concentration", "setting": "[1]; [6]", "result": 16.05, "unit": "g/L"}, {"measurement": "Specific 2,3-BDO production rate", "setting": "[1]; [6]", "result": "1.17 g 2,3-BDO/g biomass/day"}, {"measurement": "Specific Ethanol production rate", "setting": "[1]; [6]", "result": 5.54, "unit": "g ethanol/g biomass/day"}, {"measurement": "2,3-BDO titre", "setting": "[1]; [7]", "result": 1.6, "unit": "g/L"}, {"measurement": "Biomass", "setting": "[1]; [7]", "result": 6.75, "unit": "g/L"}, {"measurement": "CO uptake", "setting": "[1]; [7]", "result": 8.0, "unit": "mol/L/day"}, {"measurement": "Ethanol concentration", "setting": "[1]; [7]", "result": 18.23, "unit": "g/L"}, {"measurement": "Specific 2,3-BDO production rate", "setting": "[1]; [7]", "result": "0.47 g 2,3-BDO/g biomass/day"}, {"measurement": "Specific Ethanol production rate", "setting": "[1]; [7]", "result": 5.4, "unit": "g ethanol/g biomass/day"}, {"measurement": "limiting concentration of B1 for growth and acetate production", "setting": "[2]", "result": 6.5, "unit": "μg/g cell produced"}]}
{"smiles": "CC(C)(CO)[C@@H](O)C(=O)NCCC(=O)O", "note": "[vitamin B5, Pantothenic acid]", "values": [{"measurement": "2,3-BDO concentration", "setting": "[3]; [8]", "result": 4.8, "unit": "g/L"}, {"measurement": "Acetate concentration", "setting": "[3]; [8]", "result": 7.75, "unit": "g/L"}, {"measurement": "CO uptake", "setting": "[3]; [8]", "result": 8.4, "unit": "mol/L/day"}, {"measurement": "Ethanol concentration", "setting": "[3]; [8]", "result": 18.69, "unit": "g/L"}, {"measurement": "Specific 2,3-BDO production rate", "setting": "[3]; [8]", "result": "0.81 g 2,3-BDO/g-biomass/day"}, {"measurement": "Specific Ethanol production rate", "setting": "[3]; [8]", "result": 3.17, "unit": "g ethanol/g-biomass/day"}, {"measurement": "Biomass", "setting": "[3]; vitamin B5 feed rate 198 μg/g-cell produced, stable period day 6.0-8.0", "result": 10.62, "unit": "g/L"}, {"measurement": "2,3-BDO concentration", "setting": "[3]; [9]", "result": 7.0, "unit": "g/L"}, {"measurement": "CO uptake", "setting": "[3]; [9]", "result": 8.0, "unit": "mol/L/day"}, {"measurement": "Ethanol concentration", "setting": "[3]; [9]", "result": 19.49, "unit": "g/L"}, {"measurement": "Specific 2,3-BDO production rate", "setting": "[3]; [9]", "result": "1.32 g 2,3-BDO/g biomass/day"}, {"measurement": "Specific Ethanol production rate", "setting": "[3]; [9]", "result": 3.3, "unit": "g ethanol/g biomass/day"}, {"measurement": "Biomass", "setting": "[3]; vitamin B5 feed rate 2180 μg/g cell produced, after 10 fold increase on day 8.1", "result": 10.4, "unit": "g/L"}, {"measurement": "Specific 2,3-BDO production rate", "setting": "[4]; [10]", "result": 1.2, "unit": "g/day per g-biomass"}, {"measurement": "Specific Ethanol production rate", "setting": "[4]; [10]", "result": 2.4, "unit": "g/day per g-biomass"}, {"measurement": "2,3-BDO concentration", "setting": "[4]; [11]", "result": 9, "unit": "g/L"}, {"measurement": "CO uptake", "setting": "[4]; [11]", "result": 9.4, "unit": "mol/L/day"}, {"measurement": "vitamin B5 required for growth", "setting": "Clostridium ljungdahlii", "result": 50, "unit": "μg/g biomass produced"}]}
{"smiles": "O=C(O)CCCC[C@@H]1SC[C@@H]2NC(=O)N[C@@H]21", "note": "[vitamin B7, Biotin]", "values": [{"measurement": "impact of increasing B7 on the specific ethanol production rate", "setting": "[5]; B7 feed rate 90 to 980 μg/g cell produced", "result": "does not impact"}, {"measurement": "2,3-BDO concentration", "setting": "[5]; [12]", "result": 4.94, "unit": "g/L"}, {"measurement": "Acetate concentration", "setting": "[5]; [12]", "result": 8.13, "unit": "g/L"}, {"measurement": "Biomass", "setting": "[5]; [12]", "result": 9.42, "unit": "g/L"}, {"measurement": "CO uptake", "setting": "[5]; [12]", "result": 8.0, "unit": "mol/L/day"}, {"measurement": "Ethanol concentration", "setting": "[5]; [12]", "result": 15.63, "unit": "g/L"}, {"measurement": "Specific 2,3-BDO production rate", "setting": "[5]; [12]", "result": "1.19 g 2,3-BDO/g biomass/day"}, {"measurement": "Specific Ethanol production rate", "setting": "[5]; [12]", "result": 3.78, "unit": "g ethanol/g biomass/day"}, {"measurement": "2,3-BDO concentration", "setting": "[5]; [13]", "result": 7.34, "unit": "g/L"}, {"measurement": "Biomass", "setting": "[5]; [13]", "result": 9.23, "unit": "g/L"}, {"measurement": "CO uptake", "setting": "[5]; [13]", "result": 7.6, "unit": "mol/L/day"}, {"measurement": "Ethanol concentration", "setting": "[5]; [13]", "result": 14.92, "unit": "g/L"}, {"measurement": "Specific 2,3-BDO production rate", "setting": "[5]; [13]", "result": "1.97 g 2,3-BDO/g biomass/day"}, {"measurement": "Specific Ethanol production rate", "setting": "[5]; [13]", "result": 3.85, "unit": "g ethanol/g biomass/day"}, {"measurement": "2,3-BDO concentration", "setting": "[5]; [14]", "result": 4.76, "unit": "g/L"}, {"measurement": "Biomass", "setting": "[5]; [14]", "result": 10.53, "unit": "g/L"}, {"measurement": "CO uptake", "setting": "[5]; [14]", "result": 7.6, "unit": "mol/L/day"}, {"measurement": "Ethanol concentration", "setting": "[5]; [14]", "result": 15.70, "unit": "g/L"}, {"measurement": "Specific 2,3-BDO production rate", "setting": "[5]; [14]", "result": "1.1 g 2,3-BDO/g biomass/day"}, {"measurement": "Specific Ethanol production rate", "setting": "[5]; [14]", "result": 3.59, "unit": "g ethanol/g biomass/day"}]}
